This note sets out measurements from patent US20030212123A1, “COX-2 selective carprofen for treating pain and inflammation in dogs” (Pfizer Inc., priority 1997, published 2003).

Like-named read-outs stand apart in the source and are kept apart here.

Common to all, as to format: cell-based, dog
Assay [1] has as its target T1, canine COX-1 (Canis lupus familiaris, UniProt Q8HZR1).
T1 construct: from tissue; host or cells: washed platelets from donor dog blood
T1 sequence (Q8HZR1 28-603): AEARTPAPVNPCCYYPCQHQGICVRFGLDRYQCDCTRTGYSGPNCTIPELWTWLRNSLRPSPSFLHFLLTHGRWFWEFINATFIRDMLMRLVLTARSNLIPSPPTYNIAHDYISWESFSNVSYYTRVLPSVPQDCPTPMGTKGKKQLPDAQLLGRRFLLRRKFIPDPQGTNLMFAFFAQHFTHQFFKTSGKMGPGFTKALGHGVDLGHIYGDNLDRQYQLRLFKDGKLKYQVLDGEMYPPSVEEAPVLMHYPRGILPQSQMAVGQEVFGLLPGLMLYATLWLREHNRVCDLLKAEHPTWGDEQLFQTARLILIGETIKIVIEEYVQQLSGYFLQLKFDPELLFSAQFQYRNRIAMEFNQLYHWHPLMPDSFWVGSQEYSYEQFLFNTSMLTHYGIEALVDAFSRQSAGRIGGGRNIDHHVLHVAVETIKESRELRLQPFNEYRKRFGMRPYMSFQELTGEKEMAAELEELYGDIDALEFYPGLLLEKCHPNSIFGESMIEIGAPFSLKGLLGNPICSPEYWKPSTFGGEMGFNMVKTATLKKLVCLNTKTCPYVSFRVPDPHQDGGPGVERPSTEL
Put plainly: Canine COX-1 activity: washed canine platelets, A23187-stimulated TXB2 by EIA. As to conditions: results of repeated tests averaged. The procedure:
Protocol for Evaluation of Canine COX-1 Activity
Test drug compounds were solubilized and diluted the day before the assay was to be conducted with 0.1 mL of DMSO/9.9 mL of Hank's balanced salts solution (HBSS), and stored overnight at 4° C. On the day that the assay was carried out, citrated blood was drawn from a donor dog, centrifuged at 190×g for 25 min at room temperature, and the resulting platelet-rich plasma was then transferred to a new tube for further procedures. The platelets were washed by centrifuging at 1500×g for 10 min at room temperature. The platelets were washed with platelet buffer comprising Hank's buffer (Ca free) with 0.2% bovine serum albumin (BSA) and 20 mM HEPES. […] Then, 100 μl of canine washed platelets were added and the samples were incubated at 37° C. for 15 min, after which the reaction was stopped by adding 20 μl of 77 mM EDTA. The plates were then centrifuged at 2000×g for 10 min at […], after which 50 μl of supernatant was assayed for thromboxane B2 (TXB2) by enzyme-immunoassay (EIA).

The target in assay [2] is T2, canine COX-2 (Canis lupus familiaris, UniProt Q8SPQ9).
T2 construct: host or cells: DH82 canine histocytoma cells, LPS-treated overnight
T2 sequence (Q8SPQ9 18-604): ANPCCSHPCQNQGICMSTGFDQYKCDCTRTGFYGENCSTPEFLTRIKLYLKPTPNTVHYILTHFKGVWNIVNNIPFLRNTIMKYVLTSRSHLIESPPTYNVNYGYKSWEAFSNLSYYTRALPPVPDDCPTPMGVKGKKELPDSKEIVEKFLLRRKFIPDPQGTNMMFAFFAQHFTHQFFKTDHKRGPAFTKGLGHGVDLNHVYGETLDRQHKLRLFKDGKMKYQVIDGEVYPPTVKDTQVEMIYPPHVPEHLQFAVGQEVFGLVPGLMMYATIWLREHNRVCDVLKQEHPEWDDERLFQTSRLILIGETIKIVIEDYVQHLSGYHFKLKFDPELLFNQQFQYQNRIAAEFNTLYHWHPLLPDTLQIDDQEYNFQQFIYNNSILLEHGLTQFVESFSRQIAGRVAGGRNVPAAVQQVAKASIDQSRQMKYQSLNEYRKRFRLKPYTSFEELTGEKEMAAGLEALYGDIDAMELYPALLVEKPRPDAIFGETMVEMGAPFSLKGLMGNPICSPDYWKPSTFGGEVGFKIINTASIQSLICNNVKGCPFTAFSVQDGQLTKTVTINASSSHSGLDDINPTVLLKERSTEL
Put plainly: Canine COX-2 activity: LPS-treated DH82 canine histocytoma cells, PGE2 by EIA. On the procedure: (§1) Protocol for Evaluation of Canine COX-2 Activity
(§2) A canine histocytoma (macrophage-like) cell line from the American Type Culture Collection designated as DH82, was used in setting up the protocol for evaluating the COX-2 inhibition activity of various test drug compounds. There was added to flasks of these cells 10 μg/mL of LPS, after which the flask cultures were incubated overnight. The same test drug compound dilutions as described above for the COX-1 protocol were used for the COX-2 assay and were prepared the day before the assay was carried out. […] The test sample suspensions were incubated for 1 hr and then centrifuged at 1000 rpm for 10 min at 4° C., after which 50 μl aliquots of each test drug sample were delivered to EIA plates. The EIA was performed for prostaglandin E2 (PGE2), and the pg/mL concentration of PGE2 was calculated from the standard line included on each plate. […] The results were averaged, and a single COX-1:COX-2 ratio was calculated.

Assay [3] relates to canine COX-2. Described as above. On the procedure: as §1, §2
Setting [4] is: DH82 cells, PGE2, results of repeated tests averaged, read-out: COX-2 IC50.
The mark [5] stands for this setting: ratio of canine COX-1 IC50 to COX-2 IC50, higher = more COX-2 selective.

In the case of `COc1ccc2cc(CC(=O)O)ccc2c1` [6-MNA, 6-methoxy-2-naphthyl-acetic acid], the IC50 is 28.3 µM in assay [1] and 4.21 µM in assay [2] (setting [4]). In assay [3] (setting [5]), the “COX-1/COX-2 Ratio” value came out at 6.72.
As to `C=CCOc1ccc(CC(=O)O)cc1Cl` [Alclofenac, 3-chloro-4-(2-propenyloxy)-benzene acetic acid], the IC50 in assay [1] came to 13.2 µM; in assay [2] (setting [4]) it was 7.41 µM. The “COX-1/COX-2 Ratio” value in assay [3] (setting [5]) is recorded as 1.78.
On to `CC(=O)Oc1ccccc1C(=O)O` [Aspirin, 2-(acetyloxy)-benzoic acid], for which the IC50 is 34.3 µM in assay [1] and > 100 µM in assay [2]. In addition, in assay [3] (setting [5]), the “COX-1/COX-2 Ratio” value is on record as <0.343.
In the case of `C[C@@H](C(=O)O)c1ccc2c(c1)[nH]c1ccc(Cl)cc12` [Carprofen (R-)], the IC50 was > 25 µM in assay [1] and 5.97 µM in assay [2].
With `C[C@H](C(=O)O)c1ccc2c(c1)[nH]c1ccc(Cl)cc12` [Carprofen (S-), (S)-6-chloro-α-methyl-carbazole-2-acetic acid], the concentration for half-maximal inhibition (IC50) in assay [1] amounted to 6.71 µM; in assay [2], 0.0371 µM.
`CCc1cccc2c3c([nH]c12)C(CC)(CC(=O)O)OCC3` (stereo not shown) [Etodolac, 1,8-diethyl-1,3,4,9-tetrahydro-pyrano[3,4-b]indole-1-acetic acid]: the IC50 was determined as 1.33 µM in assay [1] and 2.57 µM in assay [2]. Further, in assay [3], the “COX-1/COX-2 Ratio” value came to 0.517.
As for `O=C(O)Cc1ccc(-c2ccccc2)cc1` [Felbinac, [1,1′-biphenyl]-4-acetic acid], the IC50 in assay [1] amounted to 2.54 µM; in assay [2] (setting [4]) it was 0.362 µM. Moreover, in assay [3] (setting [5]), the “COX-1/COX-2 Ratio” value is on record as 7.01.
For `O=C(O)c1ccccc1Nc1cccc(C(F)(F)F)c1` [Flufenamic acid, 2-{[3-(trifluoromethyl)phenyl]amino}-benzoic acid], in that order: 2.31 µM, 0.0475 µM and 48.6.
As to `Cc1c(Nc2ncccc2C(=O)O)cccc1C(F)(F)F` [Flunixin, 2-{[2-methyl-3-(trifluoromethyl)-phenyl]amino}-3-pyridinecarboxylic acid; compounded with 1-deoxy-1-(methylamino)-D-glucitol(1:1)], the IC50 in assay [1] was determined as 0.00768 µM; in assay [2] (setting [4]) it was 0.0121 µM. Further, the “COX-1/COX-2 Ratio” value in assay [3] (setting [5]) is on record as 0.635.
The compound `CC(C(=O)O)c1ccc(-c2ccccc2)c(F)c1` (stereo not drawn) [Flurbiprofen, 2-fluoro-α-methyl-[1,1′-biphenyl]-4-acetic acid] returned an IC50 in assay [1] of 0.505 µM.
For the compound `NC(=O)N1C(=O)C(C(=O)c2cccs2)c2cc(F)c(Cl)cc21` (stereo not shown) [Ilonidap, 6-chloro-5-fluoro-2,3-dihydro-(hydroxy-2-thienylmethylene)-2-oxo-1H-indole-1-carboxamide], the values for the IC50 in assay [1] and in assay [2] (setting [4]) were 0.472 µM and 0.27 µM, respectively. Also, the “COX-1/COX-2 Ratio” value in assay [3] (setting [5]) came to 1.75.
On to `CC(C(=O)O)c1cccc(C(=O)c2ccccc2)c1` (stereo not drawn) [Ketoprofen, 3-benzoyl-α-methyl-benzeneacetic acid], for which the IC50 in assay [2] turned out to be 0.123 µM.
In the case of `Cc1ccc(Cl)c(Nc2ccccc2C(=O)O)c1Cl` [Meclofenamic acid, 2-[(2,6-dichloro-3-methylphenyl)amino]-benzoic acid], the results for the IC50 in assay [1] and in assay [2] (setting [4]) were 0.737 µM and 0.0478 µM, respectively. Also, the “COX-1/COX-2 Ratio” value in assay [3] (setting [5]) was 15.4.
As for `Cc1cccc(Nc2ccccc2C(=O)O)c1C` [Mefenamic acid, 2-[(2,3-dimethylphenyl)amino]-benzoic acid], the IC50 came out at 0.403 µM in assay [1] and 0.0362 µM in assay [2]. The “COX-1/COX-2 Ratio” value in assay [3] (setting [5]) came out at 11.1.
As for `Cc1cnc(NC(=O)C2=C(O)c3ccccc3S(=O)(=O)N2C)s1` [Meloxicam, 4-hydroxy-2-methyl-N-(5-methyl-2-thiazolyl)-2H-1,2-benzothiazine-3-carboxamide], in assay [1], the midpoint of inhibition, the IC50, lay at 0.891 µM.
Same read-out and setting: with `CS(=O)(=O)Nc1ccc([N+](=O)[O-])cc1OC1CCCCC1` [NS-398, N-[2-(cyclohexyloxy)-4-nitrophenyl]-methanesulfonamide] the figure was 0.587 µM.
As for `COc1ccc2cc(C(C)C(=O)O)ccc2c1` (stereo not drawn) [Naproxen, 6-methoxy-α-methyl-2-naphthaleneacetic acid], inhibition in assay [2] was half-maximal at 0.626 µM (IC50).
Consider `O=C(O)c1cccnc1Nc1cccc(C(F)(F)F)c1` [Niflumic acid, 2-[3-(trifluoromethyl)anilino]nicotinic acid], for which the results for the IC50 in assay [1] and in assay [2] (setting [4]) were 1.03 µM and 0.0464 µM, respectively. For the same compound, the “COX-1/COX-2 Ratio” value in assay [3] (setting [5]) stood at 22.2.
In the case of `CS(=O)(=O)Nc1ccc([N+](=O)[O-])cc1Oc1ccccc1` [Nimesulide, 4′-nitro-2′-phenoxymethanesulfonanilide], 0.0565 µM corresponded to half-maximal inhibition in assay [2] (IC50).
As for `CCCCC1C(=O)N(c2ccccc2)N(c2ccccc2)C1=O` [Phenylbutazone, 4-butyl-1,2-diphenyl-3,5pyrazolidinedione], the IC50 in assay [2] (setting [4]) amounted to 3.79 µM.
The compound `CN1C(C(=O)Nc2ccccn2)=C(O)c2ccccc2S1(=O)=O` [Piroxicam, 4-hydroxyy-2-methyl-N-2-pyridinyl-2H-1,2-benzothiazine-3-carboxamide-1,1-dioxide] had an IC50 in assay [1] of 0.223 µM.
`NC(=O)N1C(=O)C(C(=O)c2cccs2)c2cc(Cl)ccc21` (stereo not shown) [Tenidap, 5-chloro-2,3-dihydro-3-(hydroxy-2-thienylmethylene)-2-oxo-1H-indole-1-carboxamide]: in assay [1], the IC50 worked out at 0.469 µM.
Turning to `Cc1c(Cl)cccc1Nc1ccccc1C(=O)O` [Tolfenamic acid, N-(3-chloro-o-tolyl)-anthranilic acid], the IC50 in assay [1] worked out at 0.206 µM; in assay [2] (setting [4]), 0.0137 µM. For the same compound, the “COX-1/COX-2 Ratio” value in assay [3] (setting [5]) stood at 15.0.
